Marks after values point to notes of the source that are not given here.
Columns and labels:
5-HT7 receptor = target: T1, 5-HT7 receptor (Homo sapiens, UniProt P34969); assay: Receptor binding assay, [3]H-5-CT; details: for 5HT-7 receptor binding data using [3]H-5-CT: stepwise screen from 10 μM, active samples diluted and re-screened, radioligand 25 pM, dropout < 35; for IC50: [3]H-5-CT binding
T1 construct: Tissues were homogenized in ice cold sucrose; from tissue; host or cells: unspecified tissue, membrane homogenate
Method: Receptor Binding Assay, ^[3]H-5-CT
The combinatorial library was screened using radiolabeled 5-carboxamidotryptamine, a selective 5-HT-7 agonist. Tissues were homogenized in ice cold sucrose (0.32 M, 25 ml) for 15 strokes at 500 rpm and centrifuged at 13000 rpm for 10 mins. The supernatant was re-centrifuged at 13000 rpm for 20 mins. The resulting pellet was re-dispersed to the required volume of buffer at 500 rpm and stored in aliquots at […].
Binding was achieved using radioligand 5-carboxamidotryptamine at 25 pM. The samples were incubated {with membranes (0.1 mg/ml)} in 20 mM Hepes, 1 mM EGTA, 5 mM MgCl2, 150 mM NaCl, at pH 6.5 for 2 hrs at RT and then centrifuged at 11000 rpm for 5 minutes. The membrane pellets were washed twice with water and the bound radioactivity was measured in a Packard Cobra Auto-gamma counter (B5005). All binding assays were carried out with SB-258719 as standard. Controls (no compound) were also added. All samples were made in duplicate and repeated twice. All compounds were initially screened for percentage inhibition at 10 μM. Samples showing an average inhibition of […] were diluted to 1 μM and re-screened and if active diluted again.

mice [1] = assay: Despair swim test (immobility time test); assay type: in vivo; details: immobility in 5 min test, drug one hour prior
From the text: Despair Swim Test (Immobility Time Test)
This reflects a state of despair, which can be reduced by several agents, which are therapeutically effective in human depression. Antidepressant drugs have the effect of reducing the duration of immobility.
Mice were brought into the laboratory at least one day before the experiment and were housed in separate cages, with free access to food and water. The mice were individually forced to swim inside a vertical Plexiglas cylinder (height: 40 cm; diameter: 18 cm, containing 15 cm of water maintained at 30° C.). After 10 min in the water the mice were removed and allowed to dry in a heated enclosure (32° C.) before being returned to their home cages. They were again replaced in the cylinder 24 hrs later and the total duration of the immobility was measured during a 5 min test. Floating behaviour during this 5 min period was reproducible in different groups of mice. An animal was judged to be immobile whenever it remained floating passively in the water in a slightly hunched but upright position, its nose just above the surface. The test drug or the standard were administered one hour prior to testing.

mice [2] = assay: Tail suspension test; assay type: in vivo; details: interperitoneal 30 min prior, immobility over 5 minutes
Method: Male mice weighting 20-25 g were used preferentially. The were housed in plastic cages for at least 10 days prior to testing in a 12 hours light cycle with food and water freely available.
Animals were transported from the housing room to the testing area in their own cages and were allowed to adapt to the new environment for 1 hour before testing. Groups of 6 animals were treated with the test compounds or the vehicle by interperitoneal injection 30 min prior to testing. For the test the mice were suspended on the edge of a shelf 58 cm above a table top by adhesive tape, placed approximately 1 cm from the tip of the tail. The duration of immobility was recorded for a period of 5 minutes. Mice were considered immobile when they hang passively and the time was recorded.

T1 sequence (P34969 whole entry): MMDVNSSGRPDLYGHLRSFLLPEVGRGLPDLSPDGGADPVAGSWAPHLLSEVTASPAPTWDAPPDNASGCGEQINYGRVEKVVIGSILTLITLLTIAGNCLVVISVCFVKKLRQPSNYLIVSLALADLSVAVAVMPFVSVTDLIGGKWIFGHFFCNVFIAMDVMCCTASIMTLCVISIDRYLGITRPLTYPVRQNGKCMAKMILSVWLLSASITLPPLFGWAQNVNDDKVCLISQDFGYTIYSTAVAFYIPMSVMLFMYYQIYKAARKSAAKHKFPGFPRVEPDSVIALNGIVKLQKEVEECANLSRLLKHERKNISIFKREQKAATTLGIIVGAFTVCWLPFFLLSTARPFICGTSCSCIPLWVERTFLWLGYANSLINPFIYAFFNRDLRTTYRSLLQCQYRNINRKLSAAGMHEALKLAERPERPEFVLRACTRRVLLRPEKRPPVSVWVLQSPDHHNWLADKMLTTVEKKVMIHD

SMILES | 5HT-7 receptor binding data using [3]H-5-CT (5-HT7 receptor) | other results
COCCN(C(C)CCN1CCC(C)CC1)S(=O)(=O)c1ccc2ccccc2c1 (centres unmarked) [E3] | E3 * (1 micromolar) | 
CC(=O)c1ccc(N(C(C)CCN2CCC(C)CC2)S(=O)(=O)Cc2ccccc2)cc1 (centres unmarked) [G22] | G22 * (1 micromolar) | 
CC1CCN(CCC(C)N(c2cccc3ccccc23)S(=O)(=O)Cc2ccccc2)CC1 (centres unmarked) [G24] | G24 * (1 micromolar) | 
COc1ccc(S(=O)(=O)N(c2ccc(Cl)cc2)C(C)CCN2CCC(C)CC2)cc1 (centres unmarked) [C6] | C6 ** (100 nM) | 
CC1CCN(CCC(C)N(C)S(=O)(=O)c2cccc([N+](=O)[O-])c2)CC1 (centres unmarked) [I8] | I8 ** (100 nM) | 
COc1cccc(N(C(C)CCN2CCC(C)CC2)S(=O)(=O)c2cccc(C)c2)c1 (centres unmarked) [B23] | B23 *** (10 nM) | 
CC1CCN(CCC(C)N(Cc2ccccc2)S(=O)(=O)c2ccc3ccccc3c2)CC1 (centres unmarked) [E1] | E1 * (1 micromolar) | 
COc1cccc(N(C(C)CCN2CCC(C)CC2)S(=O)(=O)c2cccc([N+](=O)[O-])c2)c1 (centres unmarked) [I23] | I23 ** (100 nM) | 
CC1CCN(CCC(C)N(c2ccccn2)S(=O)(=O)c2cccc3ccccc23)CC1 (centres unmarked) [D13] | D13 ** (100 nM) | 
CC1CCN(CCC(C)N(Cc2ccccc2)S(=O)(=O)c2cccc3ccccc23)CC1 (centres unmarked) [D1] | D1 * (1 micromolar) | 
Cc1cccc(S(=O)(=O)N(CCN(C)C)C(C)CCN2CCC(C)CC2)c1 (centres unmarked) [B9] | B9 * (1 micromolar) | 
COc1ccccc1N(C(C)CCN1CCC(C)CC1)S(=O)(=O)c1cccc(C)c1 (centres unmarked) [B16] | B16 ** (100 nM) | 
COc1ccc(S(=O)(=O)N(c2cccc3ccccc23)C(C)CCN2CCC(C)CC2)cc1 (centres unmarked) [C24] | C24 * (1 micromolar) | 
CC1CCN(CCC(C)N(c2cccc3ccccc23)S(=O)(=O)c2cccc([N+](=O)[O-])c2)CC1 (centres unmarked) [I24] | I24 *** (10 nM) | 
CCCCCCCCCCCCN(C(C)CCN1CCC(C)CC1)S(=O)(=O)Cc1ccccc1 (centres unmarked) [G10] | G10 * (1 micromolar) | 
COc1cccc(N(C(C)CCN2CCC(C)CC2)S(=O)(=O)Cc2ccccc2)c1 (centres unmarked) [G23] | G23 *** (10 nM) | 
CC1CCN(CCC(C)N(c2ccccc2)S(=O)(=O)c2cccc([N+](=O)[O-])c2)CC1 (centres unmarked) [I21] | I21 ** (100 nM) | 
CC1CCN(CCC(C)N(Cc2ccccc2)S(=O)(=O)c2cccc([N+](=O)[O-])c2)CC1 (centres unmarked) [I1] | I1 ** (100 nM) | 
COc1cccc(N(C(C)CCN2CCC(C)CC2)S(=O)(=O)c2cccc3ccccc23)c1 (centres unmarked) [D23] | D23 *** (10 nM) | IC50 (5-HT7 receptor): 34 nM

Further lines, with some results ahead:

5HT-7 receptor binding data using [3]H-5-CT (5-HT7 receptor) | SMILES | other results
J23 *** (10 nM) | COc1cccc(N(C(C)CCN2CCC(C)CC2)S(=O)(=O)c2ccc(-c3ccccc3)cc2)c1 (centres unmarked) [J23] | IC50 (5-HT7 receptor): 39 nM
O24 *** (10 nM) | COc1ccc(S(=O)(=O)N(c2cccc3ccccc23)C(C)CCN2CCC(C)CC2)cc1OC (centres unmarked) [O24] | Forced swim test (mice [1]; 1 mg/kg): 69 ± 7 s; Forced swim test (mice [1]; 5 mg/kg): 51 ± 11 s; IC50 (5-HT7 receptor): 83 nM; Tail suspension (mice [2]; 1 mg/kg): 81 ± 8 s; Tail suspension (mice [2]; 5 mg/kg): 74 ± 9 s
M9 * (1 micromolar) | CC1CCN(CCC(C)N(CCN(C)C)S(=O)(=O)c2ccc(Br)cc2)CC1 (centres unmarked) [M9] | 
N16 ** (100 nM) | COc1ccccc1N(C(C)CCN1CCC(C)CC1)S(=O)(=O)c1cccc(C(F)(F)F)c1 (centres unmarked) [N16] | 
N20 ** (100 nM) | Cc1ccc(N(C(C)CCN2CCC(C)CC2)S(=O)(=O)c2cccc(C(F)(F)F)c2)cc1 (centres unmarked) [N20] | 
J20 *** (10 nM) | Cc1ccc(N(C(C)CCN2CCC(C)CC2)S(=O)(=O)c2ccc(-c3ccccc3)cc2)cc1 (centres unmarked) [J20] | Forced swim test (mice [1]; 1 mg/kg): 42 ± 6 s; Forced swim test (mice [1]; 5 mg/kg): 28 ± 4 s; IC50 (5-HT7 receptor): 61 nM; Tail suspension (mice [2]; 1 mg/kg): 130 ± 11 s; Tail suspension (mice [2]; 5 mg/kg): 92 ± 9 s
N3 ** (100 nM) | COCCN(C(C)CCN1CCC(C)CC1)S(=O)(=O)c1cccc(C(F)(F)F)c1 (centres unmarked) [N3] | 

From patent US20070088052A1, “Sulfonamide derivatives as 5ht7 receptor antagonists” (Aston University, priority 2003, published 2007)
